# Source: US20070128669A1, “Serum-free expansion of cells in culture” (Institute for Chemical Genomics, priority 2005, published 2007)
# Assays:
# Murine ESCs (D3 ES) = test: SSEA-1 expression of ESCs by flow cytometry; type: cell-based, mouse; settings: 7 days after addition of IQ-1
# Procedure: Flow Cytometry. Analysis of SSEA-1 expression of ESCs was performed by flow cytometry according to Zandstra et al. (35). The test cell population was washed in ice cold Hanks balanced salt solution (Invitrogen) containing 2% FCS(HF) and resuspended for 10 min in HF containing anti-mouse CD16/CD32 monoclonal antibody at 1 μg/100 μl (Pharmingen) to block nonspecific binding. Blocked cells were then incubated at 1×10^7 cells/ml for 40 min on ice with anti-SSEA-1 (Kyowa Medex) followed by FITC-Goat anti Mouse IgM antibody (ZYMED). Cells to be analyzed for their SSEA-1 expression were then washed twice in HF with 2 μg/ml propidium iodide (Dojindo) added into the final wash. The cells were then resuspended in HF for analysis on a FACS Calibur (Becton Dickinson).
# P19 cells = test: Real-time RT-PCR of stem cell maintenance genes in P19 cells; type: cell-based; settings: Wnt3a and IQ-1 vs Wnt3a+DMSO, from the control gene β-actin
# Procedure: Real-time RT-PCR. Total RNA was isolated and reverse-transcribed using SuperScript III (Invitrogen). Real-time RT-PCR (Sybr Green; BioRad) was performed using with the gene-specific primers: […]
# In certain experiments, 2 μg of extracted total RNA was reverse-transcribed using SuperScript III RT-PCR system (Invitrogen) according to the manufacturer's protocol. 1 μl of cDNA was amplified by PCR with one or more of the gene-specific primers of SEQ ID NOs:5-18 using optimized PCR cycles to obtain amplified reactions in the linear range.
# In Table 1, above, the effects of IQ-1 treatment on genes associates with stem cell maintenance are shown, as measured by RT-PCR. The values are represented as ΔΔCT from the control gene β-actin.
# [1] = test system: TCF/β-catenin reporter in NIH-3T3 cells; test: TOPFLASH/FOPFLASH TCF/β-catenin reporter assay in NIH-3T3 cells; type: cell-based
# Procedure: (§1) NIH-3T3 cells (wt), NIH-3T3 CBP(+/−) cells and NIH-3T3 p300(+/−) cells were transfected as described in (26). Briefly, cells were transfected with TOPFLASH or FOPFLASH, using Fugene6 (Roche Molecular Biochemicals). Transfection efficiencies were normalized with pRL-null luciferase plasmid. Luciferase assays were performed with the DUAL-Luciferase Reporter Assay System (Promega).
# as §1, with “In certain experiments, NIH-3T3 cells” for “NIH-3T3 cells”
# The Wnt/β-catenin reporter constructs TOPFLASH and FOPFLASH in wild-type NIH-3T3 cells (wt), NIH-3T3 CBP(+/−) cells and NIH-3T3 p300(+/−) cells were used to determine whether IQ-1, by targeting the PR72/130 subunit with PP2A, was selectively increasing β-catenin's usage of CBP as a coactivator at the expense of p300, thereby maintaining the ESCs in the undifferentiated state (FIG. 4A). A point mutant constitutively translocating β-catenin (pt-mut β-cat) was used to stimulate reporter activity (28).
# ESCs [2] = test: Embryoid body formation and differentiation of long term cultured ESCs; type: cell-based, mouse
# Procedure: FIG. 5. […] FIG. 5A, long term cultured ESCs were induced to form embryoid bodies in suspension cultures for 3 days. ESCs cultured in media in the presence of Wnt3A and IQ-1 (4 μg/ml) for 48 days were able to form embryoid bodies (Left). ESCs lose their ability to form embryoid bodies after 3 days of culturing in the absence IQ-1 (Right). FIG. 5B, IQ-1 treated ESCs derived embryoid bodies were cultured (adherence culture) for 7-14 days to induce further differentiation. […] FIG. 5C, model depicting the proposed mechanism of action of IQ-1.
# Immunocytochemistry and Antibodies. Cells were fixed for 20 min with 4% paraformaldehyde in PBS. Immunostaining was carried out using standard protocols. Primary antibodies were used at the following dilutions: anti α-fetoprotein mouse monoclonal (R&D systems, 10 ug/ml), anti-Actin, Smooth muscle Ab-1 mouse monoclonal (LAB VISION, 1:1), anti-GATA4 mouse monoclonal (SANTA CRUZ, 1:100), anti-MAP (microtubule associated protein)2 mouse monoclonal (Chemicon, 1:200), βIII-tubulin mouse monoclonal (Chemicon, 1:200), anti-Oligodendrocyte mouse monoclonal (Chemicon, 1:1,000). Secondary antibodies were Alexa Fluor 488 or 594 goat anti-mouse IgG (H+L)(Invitrogen, 1:200). Cells were imaged using an Olympus IX 70 microscope with ×40-200 magnification.
# ESCs [3] = test: Long term feeder-free culture of ESCs in serum-free (15% KSR) media; type: cell-based, mouse
# Procedure: FIG. 7. […] ESCs were cultured in 15% KSR, 4 μg/ml of IQ-1 and 100 ng/ml Wnt3a. ESCs were passaged 2-3 times per week at 1×10^5-1×10^6 cells per 6 cm dish and cells were counted.
# FIG. 8. […] AP activity of ESCs cultured for 7 days in IQ-1 containing media supplemented with 15% FCS or 15% KSR. […] (Error bars represent ±S.D.)
# FIG. 9. […] Over the 42-day culture period, ESCs cultured in the media in the presence of IQ-1 and Wnt3a maintain expression of the pluripotency markers, (a) Nanog, (b) Oct3/4 and (c) Rex-1. The expression level on day 0 was set as 1.
# Cell culture. ESCs, D3ES (ATCC CRL-1934) were maintained on Mitomycin C treated MEFs in mouse ESC medium containing DMEM (Invitrogen) supplemented with 15% FBS (Invitrogen), 0.1 mM MEM nonessential amino acids (Invitrogen), 0.1 mM 2-mercaptoethanol (Sigma), 2 mM L-glutamine (Invitrogen) and 1,000 U/ml LIF (CHEMICON). To remove MEFs, cells were collected by trypsinization and plated on gelatin-coated culture dishes for 20 min. Non-adherent cells consisting mainly of ESCs were replated on gelatin-coated culture dishes again. Non-adherent cells were used for further experiments. P19 cells were cultured according to conditions recommended by the ATCC. Cells were incubated at 37° C. in a 5% CO2 incubator. Purified Wnt3a was purchased (R&D Systems).
# [4] = stimulated with pt-mut β-catenin
smiles,measurement,setting,value
CC(=O)c1ccc(NN=C(C(N)=O)C2=NC(C)(C)Cc3ccccc32)cc1 [IQ-1],SSEA-1 expression,Murine ESCs (D3 ES),enhanced expression
same,ΔΔCT MDR-1,P19 cells,1.69
same,ΔΔCT Oct4,P19 cells,0.39
same,ΔΔCT Sox-2,P19 cells,4.31
same,ΔΔCT c-myc,P19 cells,−2.01
same,Fopflash reporter activity,[1]; NIH-3T3 cells,no effect
same,"TOPFLASH activity, NIH-3T3 CBP (+/−) cells",[1]; [4],did not affect TOPFLASH or FOPFLASH activity
same,"TOPFLASH activity, wt NIH-3T3 cells",[1]; [4],did not affect TOPFLASH or FOPFLASH activity
same,"increase in TOPFLASH activity, NIH-3T3 p300 (+/−) cells",[1]; [4],2-3 fold
same,pluripotency: embryoid body formation and differentiation to three germ layers,"ESCs [2]; IQ-1 (4 μg/ml) and Wnt3a, after day 48",maintained the pluripotency of ESCs
same,time to loss of pluripotency after removal of IQ-1,ESCs [2]; removal of IQ-1,≤ 3 days
same,"proliferation and expression of Oct4, Nanog and Rex1, combination of Wnt3a and IQ-1","ESCs [3]; 15% KSR, Wnt3a 100 ng/ml plus IQ-1 4 μg/ml",allowed for proliferation and maintenance of pluripotency
same,time ESC proliferation and pluripotency maintained in culture,"ESCs [3]; IQ-1 in conjunction with purified Wnt3a, absence of serum",at least 48 days
same,"maintenance of undifferentiated status of ESCs, agent alone","ESCs [3]; KSR media, single agent",Neither Wnt3a nor IQ-1 alone was sufficient
